Test results as given in US20020137929A1, “1 - (3-heterocyclylphenyl) isothiourea, -isourea, -guanidine and -amidine herbicidal agents” (Intellectual Property Department, BASF Aktiengesellschaft, priority 1998, published 2002).

Legend:
AMBEL (Ragweed, Common) [1] = test: Preemergence herbicidal evaluation; format: in vivo, Ambrosia artemisifolia; details: rated 4-5 weeks after treatment
From the text: (§1) Results of herbicide evaluation are expressed on a rating scale (0-9). The scale is based upon a visual observation of plant stand, vigor, malformation, size, chlorosis and overall plant appearance as compared with a control.
(§2) The preemergence herbicidal activity of the test compounds of the present invention is exemplified by the following tests in which the seeds of a variety of monocotyledonous and dicotyledonous plants are separately mixed with potting soil and planted on top of approximately one inch of soil in separate pint cups. After planting, the cups are sprayed with the selected aqueous acetone solution containing test compound in sufficient quantity to provide the equivalent of about 0.0156 to 0.500 kg per hectare of test compound per cup. The treated cups are then placed on greenhouse benches, watered and cared for in accordance with conventional greenhouse procedures. From four to five weeks after treatment, the tests are terminated and each cup is examined and rated according to the rating system provided in Example 37.
(§3) The compounds evaluated are reported by compound number given in Example 37.

[2] = tested on: SAGPY (Arrowhead (Pygmaea)); test: Preemergence weed control under flooded paddy conditions; format: in vivo, Sagittaria pygmaea; details: rated 3-4 weeks after treatment
Summary of the method: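 Herbicidal effect is scored visually on a 0-9 scale against an untreated control, three to four weeks after compounds are pipetted into the flood water (1.5 to 3 cm deep) over seeds planted in silt loam at 0.5 cm depth. Rates: about 0.0313 to 0.500 kg/ha.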

[3] = tested on: GLXMAW (Soybean, Williams); test: Preemergence herbicidal evaluation; format: in vivo, Glycine max, (L.) Merr. cv Williams; details: rated 4-5 weeks after treatment
From the text: as §1, §2, §3

ECHCG (Barnyardgrass) = test: Preemergence herbicidal evaluation; format: in vivo, Echinochloa crus-galli; details: rated 4-5 weeks after treatment
From the text: as §1, §2, §3

AMBEL (Ragweed, Common) [4] = test: Postemergence herbicidal evaluation; format: in vivo, Ambrosia artemisifolia; details: postemergence
Procedure: (§4) In the tests, seedling plants are grown in jiffy flats for about two weeks. The test compounds are dispersed in 50/50 acetone/water mixtures containing 0.5% TWEEN®20, a polyoxyethylene sorbitan monolaurate surfactant of Atlas Chemical Industries, in sufficient quantities to provide the equivalent of about 0.0156 kg to 0.500 kg per hectare of active compound when applied to the plants through a spray nozzle operating at 40 psi for a predetermined time. After spraying, the plants are placed on greenhouse benches and are cared for in accordance with conventional greenhouse procedures. From four to five weeks after treatment, the seedling plants are examined and rated according to the rating system set forth below. Where more than one test is involved for a given compound, the data are averaged.
(§5) Plant species employed in these evaluations are reported by header abbreviation, common name and scientific name.
as §1

GALAP (Galium) = test: Preemergence herbicidal evaluation; format: in vivo, Galium aparine; details: rated 4-5 weeks after treatment
From the text: as §1, §2, §3

ZEAMX (Corn, Field) = test: Postemergence herbicidal evaluation; format: in vivo, Zea mays; details: postemergence
Summary of the method: (§6)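 Seedlings grown about two weeks were sprayed at 40 psi with compound dispersed in 50/50 acetone/water plus 0.5% TWEEN 20, at about 0.0156 to 0.500 kg/ha. Plants were kept in the greenhouse and scored 4–5 weeks later on a 0–9 visual scale against untreated controls.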

CASOB (Sicklepod) = test: Preemergence herbicidal evaluation; format: in vivo, Cassia obtusifolia; details: rated 4-5 weeks after treatment
From the text: as §1, §2, §3

[5] = tested on: IPOHE (Morningglory, Ivyleaf); test: Postemergence herbicidal evaluation; format: in vivo, Ipomoea hederacea; details: postemergence
Procedure: as §4, §5, §1

[6] = tested on: GLXMAW (Soybean, Williams); test: Postemergence herbicidal evaluation; format: in vivo, Glycine max, (L.) Merr. cv Williams; details: postemergence
Summary of the method: as §6

SETVI (Foxtail, Green) = test: Preemergence herbicidal evaluation; format: in vivo, Setaria viridis; details: rated 4-5 weeks after treatment
From the text: as §1, §2, §3

ABUTH (Velvetleaf) = test: Preemergence herbicidal evaluation; format: in vivo, Abutilon theophrasti; details: rated 4-5 weeks after treatment
From the text: as §1, §2, §3

CCOC(=O)CN1C(=O)C(CC(=O)O)SC1=Nc1cc(N2C(=O)CC(C(F)(F)F)CC2=O)c(F)cc1Cl (stereo not drawn) [Compound 170, 2-{{2-Chloro-5-[2,6-dioxo-4-(trifluoromethyl)-piperidino]-4-fluorophenyl}imino}-4-oxo-3,5-thiazolidinediacetic acid, 3-ethyl ester]
Preemergence herbicidal rating AMBEL (AMBEL (Ragweed, Common) [1]; 0.0156 kg/ha): 0.0
Preemergence herbicidal rating AMBEL (AMBEL (Ragweed, Common) [1]; 0.0313 kg/ha): 0.0
Preemergence herbicidal rating AMBEL (AMBEL (Ragweed, Common) [1]; 0.0625 kg/ha): 4.0
Preemergence herbicidal rating AMBEL (AMBEL (Ragweed, Common) [1]; 0.1250 kg/ha): 9.0
Preemergence herbicidal rating AMBEL (AMBEL (Ragweed, Common) [1]; 0.2500 kg/ha): 9.0
herbicidal effect rating, SAGPY ([2]; 0.0313 kg/ha): 5.0
herbicidal effect rating, SAGPY ([2]; 0.0625 kg/ha): 9.0
herbicidal effect rating, SAGPY ([2]; 0.1250 kg/ha): 8.0
herbicidal effect rating, SAGPY ([2]; 0.2500 kg/ha): 9.0
Preemergence herbicidal rating GLXMAW ([3]; 0.0156 kg/ha): 1.0
Preemergence herbicidal rating GLXMAW ([3]; 0.0313 kg/ha): 4.0
Preemergence herbicidal rating GLXMAW ([3]; 0.0625 kg/ha): 4.0
Preemergence herbicidal rating GLXMAW ([3]; 0.1250 kg/ha): 5.0
Preemergence herbicidal rating GLXMAW ([3]; 0.2500 kg/ha): 8.0
Preemergence herbicidal rating ECHCG (ECHCG (Barnyardgrass); 0.0156 kg/ha): 3.0
Preemergence herbicidal rating ECHCG (ECHCG (Barnyardgrass); 0.0313 kg/ha): 9.0
Preemergence herbicidal rating ECHCG (ECHCG (Barnyardgrass); 0.0625 kg/ha): 9.0
Preemergence herbicidal rating ECHCG (ECHCG (Barnyardgrass); 0.1250 kg/ha): 9.0
Preemergence herbicidal rating ECHCG (ECHCG (Barnyardgrass); 0.2500 kg/ha): 9.0
Herbicidal rating AMBEL (AMBEL (Ragweed, Common) [4]; rate 0.0156 kg/ha): 9.0
Herbicidal rating AMBEL (AMBEL (Ragweed, Common) [4]; rate 0.0313 kg/ha): 9.0
Herbicidal rating AMBEL (AMBEL (Ragweed, Common) [4]; rate 0.0625 kg/ha): 9.0
Preemergence herbicidal rating GALAP (GALAP (Galium); 0.0156 kg/ha): 0.0
Preemergence herbicidal rating GALAP (GALAP (Galium); 0.0313 kg/ha): 0.0
Preemergence herbicidal rating GALAP (GALAP (Galium); 0.0625 kg/ha): 0.0
Preemergence herbicidal rating GALAP (GALAP (Galium); 0.1250 kg/ha): 0.0
Preemergence herbicidal rating GALAP (GALAP (Galium); 0.2500 kg/ha): 3.0
Herbicidal rating ZEAMX (ZEAMX (Corn, Field); rate 0.0156 kg/ha): 5.0
Herbicidal rating ZEAMX (ZEAMX (Corn, Field); rate 0.0313 kg/ha): 6.0
Herbicidal rating ZEAMX (ZEAMX (Corn, Field); rate 0.0625 kg/ha): 6.0
Preemergence herbicidal rating CASOB (CASOB (Sicklepod); 0.0156 kg/ha): 0.0
Preemergence herbicidal rating CASOB (CASOB (Sicklepod); 0.0313 kg/ha): 0.0
Preemergence herbicidal rating CASOB (CASOB (Sicklepod); 0.0625 kg/ha): 0.0
Preemergence herbicidal rating CASOB (CASOB (Sicklepod); 0.1250 kg/ha): 3.0
Preemergence herbicidal rating CASOB (CASOB (Sicklepod); 0.2500 kg/ha): 3.0
Herbicidal rating IPOHE ([5]; rate 0.0156 kg/ha): 9.0
Herbicidal rating IPOHE ([5]; rate 0.0313 kg/ha): 9.0
Herbicidal rating IPOHE ([5]; rate 0.0625 kg/ha): 9.0
Herbicidal rating GLXMAW ([6]; rate 0.0156 kg/ha): 7.5
Herbicidal rating GLXMAW ([6]; rate 0.0313 kg/ha): 7.5
Herbicidal rating GLXMAW ([6]; rate 0.0625 kg/ha): 7.5
Preemergence herbicidal rating SETVI (SETVI (Foxtail, Green); 0.0156 kg/ha): 9.0
Preemergence herbicidal rating SETVI (SETVI (Foxtail, Green); 0.0313 kg/ha): 9.0
Preemergence herbicidal rating SETVI (SETVI (Foxtail, Green); 0.0625 kg/ha): 9.0
Preemergence herbicidal rating SETVI (SETVI (Foxtail, Green); 0.1250 kg/ha): 9.0
Preemergence herbicidal rating SETVI (SETVI (Foxtail, Green); 0.2500 kg/ha): 9.0
Preemergence herbicidal rating ABUTH (ABUTH (Velvetleaf); 0.0156 kg/ha): 0.0
Preemergence herbicidal rating ABUTH (ABUTH (Velvetleaf); 0.0313 kg/ha): 6.0
Preemergence herbicidal rating ABUTH (ABUTH (Velvetleaf); 0.0625 kg/ha): 9.0
Preemergence herbicidal rating ABUTH (ABUTH (Velvetleaf); 0.1250 kg/ha): 9.0
Preemergence herbicidal rating ABUTH (ABUTH (Velvetleaf); 0.2500 kg/ha): 9.0
